Results reported in PubChem BioAssay AID330 (DTP/NCI, 2004).
Where “and” joins values, the source holds several entries; their conditions need not be identical. Equal entries are not always repeated. Toxic doses and inconclusive results are not listed. The calls were made as follows: active = survival T/C of 150% or more; inactive = T/C below 125% in these data.

Test system: P388 leukemia ip, CD2F1 mice, survival T/C
Assay: NCI In Vivo Anticancer Drug Screen. Data for tumor model P388 Leukemia (intraperitoneal) in CD2F1 (CDF1) mice
Conditions: endpoint: median survival time, higher = longer survival
In short: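 Mice carrying the transplanted tumor received test compound or vehicle. Survival was recorded in each group, and the value is the treated-group measurement divided by that of the vehicle-treated control group.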

[1] = dose: 60.0 mg/kg/injection, schedule: Q01DX005 (ip), vehicle: Klucel (hydroxypropylcellulose) (HPC)
[2] = dose: 50.0 mg/kg/injection, schedule: Q01DX005 (ip), vehicle: Klucel (hydroxypropylcellulose) (HPC)
[3] = dose: 100.0 mg/kg/injection, schedule: Q01DX005 (ip), vehicle: Klucel (hydroxypropylcellulose) (HPC)
[4] = dose: 200.0 mg/kg/injection, schedule: Q01DX005 (ip), vehicle: Klucel (hydroxypropylcellulose) (HPC)
[5] = dose: 60.0 mg/kg/injection, schedule: Q01DX005 (ip), vehicle: saline with Tween-80
[6] = dose: 120.0 mg/kg/injection, schedule: Q01DX005 (ip), vehicle: saline with Tween-80
[7] = dose: 240.0 mg/kg/injection, schedule: Q01DX005 (ip), vehicle: saline with Tween-80
[8] = dose: 100.0 mg/kg/injection, schedule: Q04DX003 (ip), vehicle: saline
[9] = dose: 200.0 mg/kg/injection, schedule: Q04DX003 (ip), vehicle: saline
[10] = dose: 12.5 mg/kg/injection, schedule: Q01DX009 (ip), vehicle: saline
[11] = dose: 25.0 mg/kg/injection, schedule: Q01DX009 (ip), vehicle: saline
[12] = dose: 50.0 mg/kg/injection, schedule: Q01DX009 (ip), vehicle: saline
[13] = dose: 100.0 mg/kg/injection, schedule: Q01DX009 (ip), vehicle: saline with Tween-80
[14] = dose: 200.0 mg/kg/injection, schedule: Q01DX009 (ip), vehicle: saline with Tween-80
[15] = dose: 50.0 mg/kg/injection, schedule: Q01DX005 (ip), vehicle: saline
[16] = dose: 100.0 mg/kg/injection, schedule: Q01DX005 (ip), vehicle: saline
[17] = dose: 50.0 mg/kg/injection, schedule: Q01DX009 (ip), vehicle: other
[18] = dose: 100.0 mg/kg/injection, schedule: Q01DX009 (ip), vehicle: other
[19] = dose: 200.0 mg/kg/injection, schedule: Q01DX009 (ip), vehicle: other
[20] = dose: 50.0 mg/kg/injection, schedule: Q01DX009 (ip), vehicle: Klucel (hydroxypropylcellulose) (HPC)
[21] = dose: 100.0 mg/kg/injection, schedule: Q01DX009 (ip), vehicle: Klucel (hydroxypropylcellulose) (HPC)
[22] = dose: 200.0 mg/kg/injection, schedule: Q01DX009 (ip), vehicle: Klucel (hydroxypropylcellulose) (HPC)
[23] = dose: 200.0 mg/kg/injection, schedule: Q01DX009 (ip), vehicle: saline
[24] = dose: 100.0 mg/kg/injection, schedule: Q01DX009 (ip), vehicle: saline

Measured: T/C

COC(=O)[CH2][Ge]([c]1ccccc1)[c]1ccccc1.COC(=O)[CH2][Ge]([c]1ccccc1)[c]1ccccc1
inactive: dose: 15.0 mg/kg/injection, schedule: Q01DX005 (ip), vehicle: Klucel (hydroxypropylcellulose) (HPC) 97 % of control | dose: 30.0 mg/kg/injection, schedule: Q01DX005 (ip), vehicle: Klucel (hydroxypropylcellulose) (HPC) 89 % of control | [1] 89 % of control

CS(=O)(=O)C(CCC(=O)c1ccc2ccccc2c1)C(=O)c1ccccc1 (stereo unspecified)
inactive: [2] 88 % of control | [3] 89 % of control | [4] 92 % of control

O=C(O)C(c1ccccc1)N1C(=O)C(Cl)=C(Cl)C1=O (stereo unspecified)
inactive: dose: 15.0 mg/kg/injection, schedule: Q01DX005 (ip), vehicle: saline with Tween-80 94 % of control | dose: 30.0 mg/kg/injection, schedule: Q01DX005 (ip), vehicle: saline with Tween-80 100 % of control | [5] 103 % of control and 112 % of control

Cc1nc2ccc(N(C)C)cc2c2c1Cc1c(C)nc3ccc(N(C)C)cc3c1O2
inactive: [5] 88 % of control | [6] 88 % of control | [7] 94 % of control

CC(O)COCCOCCO (stereo unspecified)
inactive: [8] 100 % of control | [9] 100 % of control | dose: 400.0 mg/kg/injection, schedule: Q04DX003 (ip), vehicle: saline 104 % of control

O=C1C=CC(=O)C(C2OC(=O)C(Cl)=C2Cl)=C1 (stereo unspecified)
inactive: dose: 50.0 mg/kg/injection, schedule: Q01DX005 (ip), vehicle: saline with Tween-80 110 % of control | dose: 100.0 mg/kg/injection, schedule: Q01DX005 (ip), vehicle: saline with Tween-80 104 % of control

CCOC(O)C(F)(F)F (stereo unspecified)
inactive: [10] 105 % of control | [11] 105 % of control | [12] 100 % of control | [8] 100 % of control | [9] 109 % of control

O=C1c2cc(O)c(O)cc2O[C@H](c2ccc(O)c(O)c2)[C@H]1O
inactive: [13] 120 % of control | dose: 100.0 mg/kg/injection, schedule: Q04DX003 (ip), vehicle: saline with Tween-80 100 % of control | [14] 110 % of control | dose: 200.0 mg/kg/injection, schedule: Q04DX003 (ip), vehicle: saline with Tween-80 100 % of control | dose: 400.0 mg/kg/injection, schedule: Q01DX009 (ip), vehicle: saline with Tween-80 120 % of control | dose: 400.0 mg/kg/injection, schedule: Q04DX003 (ip), vehicle: saline with Tween-80 109 % of control

CCCC/C=C(\C#N)SCC
inactive: dose: 37.5 mg/kg/injection, schedule: Q01DX009 (ip), vehicle: saline with Tween-80 100 % of control and 112 % of control and 118 % of control | dose: 75.0 mg/kg/injection, schedule: Q01DX009 (ip), vehicle: saline with Tween-80 105 % of control and 114 % of control and 119 % of control | dose: 150.0 mg/kg/injection, schedule: Q01DX009 (ip), vehicle: saline with Tween-80 106 % of control and 123 % of control | dose: 300.0 mg/kg/injection, schedule: Q01DX009 (ip), vehicle: saline with Tween-80 104 % of control

CC(C)(C)N1CCC1CN (stereo unspecified)
inactive: dose: 25.0 mg/kg/injection, schedule: Q01DX005 (ip), vehicle: saline 90 % of control | [15] 100 % of control | [16] 104 % of control | dose: 200.0 mg/kg/injection, schedule: Q01DX005 (ip), vehicle: saline 100 % of control

Cn1nc2c(c1-c1ccncc1)CCc1ccccc1-2
inactive: dose: 12.5 mg/kg/injection, schedule: Q01DX009 (ip), vehicle: other 110 % of control | dose: 25.0 mg/kg/injection, schedule: Q01DX009 (ip), vehicle: other 105 % of control | [17] 115 % of control | [18] 107 % of control | [19] 103 % of control

COc1ccc(-c2sc(C)nc2O)cc1
inactive: dose: 50.0 mg/kg/injection, schedule: Q01DX009 (ip), vehicle: saline with Tween-80 101 % of control | [13] 94 % of control | [14] 98 % of control

O=C1NC(=O)C2C3CCC(O3)C12 (stereo unspecified)
inactive: [15] 106 % of control and 99 % of control | [5] 94 % of control | dose: 60.0 mg/kg/injection, schedule: Q01DX005 (ip), vehicle: saline 101 % of control | [16] 106 % of control and 98 % of control | [6] 100 % of control | dose: 120.0 mg/kg/injection, schedule: Q01DX005 (ip), vehicle: saline 102 % of control | [7] 106 % of control | dose: 240.0 mg/kg/injection, schedule: Q01DX005 (ip), vehicle: saline 92 % of control

CCCCCCCC/C=C\CCCCCCCCCCCC(=O)O
inactive: [20] 100 % of control | [17] 100 % of control | [21] 92 % of control | [18] 106 % of control | [22] 91 % of control | [19] 102 % of control | dose: 400.0 mg/kg/injection, schedule: Q01DX009 (ip), vehicle: Klucel (hydroxypropylcellulose) (HPC) 98 % of control | dose: 400.0 mg/kg/injection, schedule: Q01DX009 (ip), vehicle: other 94 % of control

Cn1ncc(=O)[nH]c1=O
inactive: [2] 103 % of control | [3] 98 % of control | [4] 103 % of control

[NH-]C(CCC(N)=O)C(=O)O.[NH-]C(CCC(N)=O)C(=O)O.[Ni+2] (stereo unspecified)
inactive: dose: 6.25 mg/kg/injection, schedule: Q01DX005 (ip), vehicle: saline 93 % of control | dose: 12.5 mg/kg/injection, schedule: Q01DX005 (ip), vehicle: saline 96 % of control

Cc1cc(C)c(N=Cc2cccs2)c(C)c1
inactive: [10] 107 % of control | [11] 111 % of control | [12] 101 % of control and 106 % of control | [23] 92 % of control

CC(C)CC1N=C(NN=C2CCCCC2)SP1(=O)NNc1ncccn1 (stereo unspecified)
inactive: [1] 94 % of control | dose: 120.0 mg/kg/injection, schedule: Q01DX005 (ip), vehicle: Klucel (hydroxypropylcellulose) (HPC) 97 % of control

CN(C)c1ccc(/C=C/c2ccnc3ccccc23)c(F)c1
inactive: [12] 86 % of control | [24] 92 % of control | [23] 86 % of control

COc1cccc(-c2nnc(-c3nc[nH]c3C)o2)c1
inactive: dose: 100.0 mg/kg/injection, schedule: Q04DX002 (ip), vehicle: Klucel (hydroxypropylcellulose) (HPC) 100 % of control | dose: 200.0 mg/kg/injection, schedule: Q04DX002 (ip), vehicle: Klucel (hydroxypropylcellulose) (HPC) 95 % of control

O=NN(CCCCl)C(=O)NC1CCCCC1
inactive: [10] 86 % of control | [11] 98 % of control | [12] 104 % of control | [24] 107 % of control

CCn1c(=O)c2[nH]c(SC)nc2n(CC)c1=O
inactive: dose: 16.0 mg/kg/injection, schedule: Q01DX009 (ip), vehicle: Klucel (hydroxypropylcellulose) (HPC) 105 % of control | dose: 32.0 mg/kg/injection, schedule: Q01DX009 (ip), vehicle: Klucel (hydroxypropylcellulose) (HPC) 107 % of control | [20] 116 % of control | dose: 64.0 mg/kg/injection, schedule: Q01DX009 (ip), vehicle: Klucel (hydroxypropylcellulose) (HPC) 104 % of control | [21] 111 % of control | [22] 100 % of control
